Consider three compounds from US4855324A, “Furyl, phenylene, and thienyl leukotriene B4 analogues” (G. D. Searle & Co., priority 1988, dated 1989).

One assay deals with T1, LTB4 receptors (Homo sapiens, UniProt Q15722).
T1 construct: neutrophils were purified from venous blood of normal human donors; endogenous in cells; host or cells: human neutrophils purified from venous blood of normal donors
The assay is described as follows: LTB4 Receptor Binding Assay (inhibition of specific (3H) LTB4 binding to neutrophils). Conditions: 0.6nM (3H) LTB4, human neutrophils, 0°C, 45 minutes, pH 7.4. The protocol: Neutrophils (4-6×10^6) in 1ml of Hanks' balanced salt solution containing 10mM Hepes Buffer (HBSS), pH 7.4 and 30 μM nordihydroguaiaretic acid were incubated with 0.6nM (^3 H) LTB4 in the presence or absence of test compounds. The incubation was carried out at 0°C. for 45 minutes and terminated by adding 5ml of ice-cold HBSS followed by rapid filtration of incubation mixture under vacuum through GF/C glass fiber filters. The filters were further washed with 10ml HBSS and their radioactivity determined. Specific binding was defined as the difference between total binding and nonspecific binding which was not displaced by 10^- 7M unlabeled LTB4.

Assay [1] can be described thus: Boyden Chamber Inhibition (as Antagonist). It is filed as cell-based. Conditions: at 10^-5 (concentration unit not given).
A further assay concerns Human Neutrophil. The assay is described as follows: Human Neutrophil Degranulation Assay (LTB4 induced, myeloperoxidase release). It is filed as cell-based. The note with it: LTB4 5×10^-8 M, cytochalasin B, 37°C, read-out: Inhibition of LTB4 Induced Neutrophil Degranulation IC50. The source says: For use in both the "LTB4 receptor Binding Assay" and the "human Neutrophil Degranulation Assay", neutrophils were purified from venous blood of normal human donors using standard techniques of dextran sedimentaion, centrifugation on Histopaque^2 (density solution) and hypotonic lysis of erythrocytes (Boyum, A., Isolation of Leukocytes From Human Blood: Further Observations. Scand. J. Lab. Clin. Inves. 21 (Suppl. 97): 31, 1968). The purity of isolated neutrophilis was ≥95%.
LTB4 induced neutrophil degranulation was determined by measuring the release of myeloperoxidase activity into the incubation medium. Neturophils (3 ×10^6) in 1ml HBSS solution were preincubated with cytochalasin B(5μg) at 37°C. for 5 minutes, followed by preincubation with test compounds for 7 minutes. Neutrophils were then incubated for 2 to 20 minutes with either LTB4 (5 ×10^- 8M) or the chemotatic peptide f-met-leu-phe (5 ×10^- 6M) to induce degranulation. Following incubation, samples were centrifuged and myeloperoxidase was extracted from the cell pellets by sonication in phoshpate buffer containing 0.4% Triton X-100. Triton X-100 was also added to the supernatents to a concentration of 0.4%. The supernatants and the pellet extracts were then assayed spectrophotometrically for myeloperoxide activity by determining the rate of decomposition of H2 O2 withh o-dianisidine as hydrogen donor as described by Renlund, D. G., MacFarlane, J. L., Christensen, R. D., Lynch, R. E., and Rothstein, G., A Quantitative And Sensitive Method For Measurement Of Myeloperoxidase, Clinical Research 28:75A, 1980). Myeloperoxidase activity released into the supernatant was expressed as the percent of the average total activity (pellet plus supernatant).
The inhibition of LTB4 induced neutrophil degranulation was determined for representative compounds of this invention and their corresponding IC50 values were calculated (Table 1). The concentration of a compound which inhibited LTB4 induced neutrophil degranulation by 50% was determined to be its IC50 value.

Molecules are shown by their SMILES.

T1 sequence (Q15722 whole entry): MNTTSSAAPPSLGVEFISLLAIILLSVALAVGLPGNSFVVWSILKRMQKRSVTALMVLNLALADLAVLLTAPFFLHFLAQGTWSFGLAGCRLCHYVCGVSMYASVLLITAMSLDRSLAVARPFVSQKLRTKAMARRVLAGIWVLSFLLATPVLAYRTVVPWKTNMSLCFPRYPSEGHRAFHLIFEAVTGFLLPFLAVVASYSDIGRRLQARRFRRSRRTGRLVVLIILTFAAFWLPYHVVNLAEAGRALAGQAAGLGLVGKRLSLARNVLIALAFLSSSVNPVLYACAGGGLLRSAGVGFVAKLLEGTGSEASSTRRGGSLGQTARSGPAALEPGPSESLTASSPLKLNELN

As a reminder, the IC50 is the midpoint of a concentration-inhibition curve. Consider `CCCCCCCCC(O)/C=C/C=C/c1ccccc1C(=O)CCCC(=O)O` (stereo not drawn), for which the IC50 on LTB4 receptors stood at 3 µM; in the assay with Human Neutrophil, 1 µM. Moreover, in assay [1], the “Boyden Chamber Inhibition at 10^-5 (as Antagonist)” value is on record as 8%.
On the same counts, the results for `CCCCCCCCC(O)/C=C/C=C/c1ccc(C(=O)CCCC(=O)O)s1` (stereo not drawn) are 4.1 µM, 1.8 µM and 30%.
Turning to `CCCCCCCCC(O)/C=C/C=C/c1ccc(C(O)CCCC(=O)O)s1` (stereo not drawn), the figures for the IC50 at LTB4 receptors and in the assay on Human Neutrophil were 6.3 µM and 5.2 µM, respectively. Besides, the “Boyden Chamber Inhibition at 10^-5 (as Antagonist)” value in assay [1] is reported as 33%.
